Laboratory results: US20260306640A1, “TECHNOLOGIES TARGETING CELL STATES” (Auron Therapeutics, Inc., priority 2023, published 2026)

Key:
[1] = biological target: T1, KAT2A (Homo sapiens, UniProt Q92830); assay: KAT2A degradation, Western Blot (Jess), NCI-H1048 cells; assay type: cell-based; set-up: degrader, Western blot (Jess); details: NCI-H1048 cells, KAT2A, 24 h, Western Blot, vs DMSO; read-out: KAT2A NCI-H1048 DC50
Outline: (§1)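 DC50 came from protein loss relative to DMSO, measured by Jess capillary immunoblot of RIPA lysates with chemiluminescence read-out. Before lysis, NCI-H1048 cells in 5% FBS HITES medium were exposed to compound for 24 h at 37° C.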

[2] = biological target: T1, KAT2A; assay: KAT2A degradation, Western Blot (Jess), MOLM-13 cells; assay type: cell-based; set-up: degrader, Western blot; details: MOLM-13 cells, KAT2A, 24 h, Western Blot, vs DMSO; read-out: KAT2A MOLM-13 DC50
Outline: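 MOLM-13 cells in RPMI 1640/20% FBS were treated with compound for 24 h at 37 °C. RIPA lysates (4 μg) were run on a capillary Western (Jess) with anti-KAT2A antibody and chemiluminescent detection. DC50 comes from percent protein reduction versus DMSO control.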

[3] = system: MOLM-13 cells; assay: Cell growth inhibition, AML cell line MOLM-13 (CyQuant, day 7); assay type: cell-based; details: Homo sapiens, 168 h; MOLM-13, day 7, CyQuant; read-out: MOLM13 GI50
From the text: (§2) Among other things, provided technologies are useful for treating various diseases, disorders, or conditions. For example, in some embodiments, provided technologies are useful for treating cancer as confirmed in the present Example. […] In some embodiments, provided technologies can inhibit cell proliferation. In some embodiments, the present disclosure provides technologies for assessing various technologies, e.g., compounds, compositions, or methods. Among other things, the present Example provides technologies, e.g., cell growth inhibition assay, for assessing various technologies. […] In some embodiments, the following cell growth inhibition methods are utilized to assess provided technologies.
AML: AML cell line MOLM-13 cells were cultured in RPMI+15% FBS and were plated at 500 cells/well in 100 uL media in a U-bottom 96-well plate. Compounds were dilute to 3×final in full media and 50 uL were added to corresponding wells. Compound and media were replenished on days 2 and 5. On day 7, cells were transferred to a 96-well black bottom plate and CyQuant was performed per manufacturer's instructions.
(§3) In some assessments, for cell growth inhibition, cells, e.g., MOLM13, NCI-H1048, and LASCPC-01 cells, were counted using a hemocytometer or automated cell counting in triplicates. In some assessments, proliferation in NEPC organoids as measured with Cell Titer Glo reagent (Promega). Growth inhibition was determined relative to vehicle control.

[4] = biological target: KAT2B (Homo sapiens, UniProt Q92831); assay: KAT2B degradation, Western Blot (Jess), NCI-H1048 cells; assay type: cell-based; set-up: degrader, Western blot (Jess); details: NCI-H1048 cells, KAT2B, 24 h, Western Blot, vs DMSO; read-out: KAT2B NCI-H1048 DC50
Sequence of KAT2B (Q92831 whole entry): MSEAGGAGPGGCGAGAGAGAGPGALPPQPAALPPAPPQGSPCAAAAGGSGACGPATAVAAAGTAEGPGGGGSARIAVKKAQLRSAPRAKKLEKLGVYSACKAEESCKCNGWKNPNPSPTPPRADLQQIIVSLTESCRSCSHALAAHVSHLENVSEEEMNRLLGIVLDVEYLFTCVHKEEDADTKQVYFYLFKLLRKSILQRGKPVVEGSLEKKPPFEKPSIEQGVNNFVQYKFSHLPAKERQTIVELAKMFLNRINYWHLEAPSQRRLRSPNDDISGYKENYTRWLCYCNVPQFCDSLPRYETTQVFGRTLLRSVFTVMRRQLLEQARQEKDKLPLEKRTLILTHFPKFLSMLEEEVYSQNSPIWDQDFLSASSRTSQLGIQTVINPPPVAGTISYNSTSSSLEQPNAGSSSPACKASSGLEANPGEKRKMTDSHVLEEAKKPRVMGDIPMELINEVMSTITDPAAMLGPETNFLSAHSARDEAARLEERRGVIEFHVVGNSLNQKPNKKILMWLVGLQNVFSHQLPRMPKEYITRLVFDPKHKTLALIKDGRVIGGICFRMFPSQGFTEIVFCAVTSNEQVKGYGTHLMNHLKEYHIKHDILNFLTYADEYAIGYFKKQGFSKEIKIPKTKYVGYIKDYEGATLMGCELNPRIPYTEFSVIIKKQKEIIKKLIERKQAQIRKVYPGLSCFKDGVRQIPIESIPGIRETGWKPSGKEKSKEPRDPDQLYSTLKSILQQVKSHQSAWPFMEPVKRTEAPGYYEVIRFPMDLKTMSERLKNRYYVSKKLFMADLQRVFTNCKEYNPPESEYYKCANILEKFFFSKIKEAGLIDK
Outline: as §1

[5] = system: NCI-H1048 cells; assay: Cell growth inhibition, SCLC cell line NCI-H1048 (cell count, day 11); assay type: cell-based, human; details: Homo sapiens, 264 h; NCI-H1048, day 11, cell count; read-out: H1048 GI50
From the text: as §2
SCLC: SCLC cell lines NCI-H1048 and NCI-H1876 were cultured in DMEM F12 media with 5% FBS, 1% Penicillin/Streptomycin and HITES supplement (Hydrocortisone, Insulin, Transferrin, Estradiol and Sodium Selenite). NCI-H1048 cells were plated at 10,000 cells/well of a 24-well plate and NCI-H1876 cells were plated at 20,000 cells/well of a 96-well plate. Compound and media were replenished every two days out to day 11 and 10 respectively. Cells were then trypsinized and counted using either hemocytometer or an automated Countess cell counter.
as §3

T1 sequence (Q92830 whole entry): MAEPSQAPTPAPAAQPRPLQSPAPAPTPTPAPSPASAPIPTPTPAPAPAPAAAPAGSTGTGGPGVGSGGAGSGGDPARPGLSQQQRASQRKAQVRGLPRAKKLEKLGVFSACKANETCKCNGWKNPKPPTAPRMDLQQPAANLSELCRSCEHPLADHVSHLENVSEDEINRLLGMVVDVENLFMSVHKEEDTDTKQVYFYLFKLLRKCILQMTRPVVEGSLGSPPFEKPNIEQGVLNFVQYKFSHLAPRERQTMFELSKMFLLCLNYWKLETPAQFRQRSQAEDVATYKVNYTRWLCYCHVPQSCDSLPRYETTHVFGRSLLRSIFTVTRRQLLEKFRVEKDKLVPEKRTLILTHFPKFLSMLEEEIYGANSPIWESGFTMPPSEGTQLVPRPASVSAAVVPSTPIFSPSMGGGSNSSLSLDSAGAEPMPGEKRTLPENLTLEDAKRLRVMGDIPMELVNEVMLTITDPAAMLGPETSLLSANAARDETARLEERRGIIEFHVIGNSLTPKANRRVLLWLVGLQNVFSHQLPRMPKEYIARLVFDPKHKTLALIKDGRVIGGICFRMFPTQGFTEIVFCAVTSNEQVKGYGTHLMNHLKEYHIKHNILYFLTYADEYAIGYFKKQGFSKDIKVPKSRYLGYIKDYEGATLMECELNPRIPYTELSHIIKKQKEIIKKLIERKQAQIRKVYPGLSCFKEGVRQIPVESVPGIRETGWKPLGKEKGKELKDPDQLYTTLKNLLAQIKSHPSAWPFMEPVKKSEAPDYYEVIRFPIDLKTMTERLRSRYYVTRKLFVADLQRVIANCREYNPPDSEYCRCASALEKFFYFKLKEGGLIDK

Row | DC50 [1] [nM] | DC50 [2] [nM] | GI50 [3] [nM] | DC50 [4] [nM] | GI50 [5] [nM] | SMILES
1 | < 1 | < 1 | 5.9 | < 1 |  | CN1C[C@H](Nc2cnn(C)c(=O)c2Br)C[C@H](c2ccc(C(=O)N3CCC4(CC3)CCN(c3ccc(C5CCC(=O)NC5=O)cc3F)CC4)cc2)C1 (stereo partly drawn) [Compound 146]
2 | < 1 | < 1 | 0.9 | < 1 |  | CN1C[C@H](Nc2cnn(C)c(=O)c2Br)C[C@H](c2ccc(C(=O)N3CCC4(CC3)CCN(c3ccc(C5CCC(=O)NC5=O)c(F)c3)CC4)cc2)C1 (stereo partly drawn) [Compound 157, 3-[4-[3-[4-[(3R,5R)-5-[(5-bromo-1-methyl-6-oxo-pyridazin-4-yl)amino]-1-methyl-3-piperidyl]benzoyl]-3,9-diazaspiro[5.5]undecan-9-yl]-2-fluoro-phenyl]piperidine-2,6-dione]
3 | < 1 |  | 20 | 1 to 30 | 60 | COc1cc(C2CCC(=O)NC2=O)ccc1N1CCC2(CCN(C(=O)c3ccc([C@H]4C[C@@H](Nc5cnn(C)c(=O)c5Br)CN(C)C4)cc3)CC2)CC1 (stereo partly drawn) [Compound 238]
4 | < 1 |  | 0.7 | < 1 |  | Cc1c(N[C@@H]2C[C@H](c3ccc(C(=O)N4CCC5(CC4)CCN(c4ccc(C6CCC(=O)NC6=O)c(F)c4)CC5)cc3)CN(C)C2)cnn(C)c1=O (stereo partly drawn) [Compound 229, 3-[4-[3-[4-[(3R,5R)-5-[(1,5-dimethyl-6-oxo-pyridazin-4-yl)amino]-1-methyl-3-piperidyl]benzoyl]-3,9-diazaspiro[5.5]undecan-9-yl]-2-fluoro-phenyl]piperidine-2,6-dione]
5 | < 1 |  | 5.2 | 1 to 30 |  | COc1cc(N2CCC3(CCN(C(=O)c4ccc([C@H]5C[C@@H](Nc6cnn(C)c(=O)c6Cl)CN(C)C5)cc4)CC3)CC2)ccc1C1CCC(=O)NC1=O (stereo partly drawn) [Compound 232]
6 | < 1 |  | 0.3 | < 1 |  | CN1C[C@H](Nc2cnn(C)c(=O)c2Cl)C[C@H](c2ccc(C(=O)N3CCC4(CC3)CCN(c3ccc5c(C6CCC(=O)NC6=O)nn(C)c5c3)CC4)cc2)C1 (stereo partly drawn) [Compound 208, 3-[6-[3-[4-[(3R,5R)-5-[(5-chloro-1-methyl-6-oxo-pyridazin-4-yl)amino]-1-methyl-3-piperidyl]benzoyl]-3,9-diazaspiro[5.5]undecan-9-yl]-1-methyl-indazol-3-yl]piperidine-2,6-dione]
7 | 1 to 30 |  | > 100 | > 30 |  | Cc1cc(N2CCC3(CCN(C(=O)c4ccc([C@H]5C[C@@H](Nc6cnn(C)c(=O)c6Br)CN(C)C5)cc4)CC3)CC2)c(F)cc1C1CCC(=O)NC1=O (stereo partly drawn) [Compound 243]
8 | < 1 |  | 3.7 | < 1 |  | Cc1cc(C2CCC(=O)NC2=O)ccc1N1CCC2(CCN(C(=O)c3ccc([C@H]4C[C@@H](Nc5cnn(C)c(=O)c5Cl)CN(C)C4)cc3)CC2)CC1 (stereo partly drawn) [Compound 250]
9 | < 1 |  | 33.3 | 1 to 30 |  | CN1C[C@H](Nc2cnn(C)c(=O)c2Cl)C[C@H](c2ccc(C(=O)N3CCC4(CC3)CCN(c3ccc(OC5CCC(=O)NC5=O)cc3)CC4)cc2)C1 (stereo partly drawn) [Compound 362]
10 | < 1 |  | 5.9 | < 1 |  | Cc1cc(N2CCC3(CCN(C(=O)c4ccc([C@H]5C[C@@H](Nc6cnn(C)c(=O)c6C)CN(C)C5)cc4)CC3)CC2)ccc1C1CCC(=O)NC1=O (stereo partly drawn) [Compound 219]
11 | < 1 |  | 4.4 | < 1 |  | Cc1cc(N2CCC3(CCN(C(=O)c4ccc([C@H]5C[C@@H](Nc6cnn(C)c(=O)c6Cl)CN(C)C5)cc4)CC3)CC2)ccc1C1CCC(=O)NC1=O (stereo partly drawn) [Compound 223]
12 | < 1 |  | 3.9 | < 1 |  | CN1C[C@H](Nc2cnn(C)c(=O)c2Br)C[C@H](c2ccc(C(=O)N3CCC4(CC3)CCN(c3ccc(C5CCC(=O)NC5=O)cc3)CC4)cc2)C1 (single isomer, unassigned) [Compound 240]
13 | < 1 | < 1 | 4.8 | < 1 |  | Cc1cc(N2CCC3(CCN(C(=O)c4ccc([C@H]5C[C@@H](Nc6cnn(C)c(=O)c6Br)CN(C)C5)cc4)CC3)CC2)ccc1C1CCC(=O)NC1=O (stereo partly drawn) [Compound 167]

Continued, compound first:

Row | SMILES | DC50 [1] [nM] | DC50 [2] [nM] | GI50 [3] [nM] | DC50 [4] [nM] | GI50 [5] [nM]
14 | CN1C[C@H](Nc2cnn(C)c(=O)c2Br)C[C@H](c2ccc(COc3ccc4c(c3)C(=O)N(C3CCC(=O)NC3=O)C4=O)cc2)C1 (stereo partly drawn) [Compound 39] | < 1 | < 1 | 5.6 | 1 to 30 | 
15 | CN1C[C@H](Nc2cnn(C)c(=O)c2Br)C[C@H](c2ccc(CN3CCN(c4cccc([C@H]5CCC(=O)NC5=O)c4)CC3)cc2)C1 [Compound 84, 3-[3-[4-[[4-[(3R,5R)-5-[(5-bromo-1-methyl-6-oxo-pyridazin-4-yl)amino]-1-methyl-3-piperidyl]phenyl]methyl]piperazin-1-yl]phenyl]piperidine-2,6-dione] | < 1 | < 1 | 1.1 | 1 to 30 | 
16 | CN1C[C@H](Nc2cnn(C)c(=O)c2Br)C[C@H](c2ccc(C(=O)N3CCN(Cc4ccc(C(=O)Nc5ccc6c(c5)CN(C5CCC(=O)NC5=O)C6=O)cc4)CC3)cc2)C1 (stereo partly drawn) [Compound 2-15] |  |  | 5.2 |  | 2
17 | CN1C[C@H](Nc2cnn(C)c(=O)c2Cl)C[C@H](c2ccc(C(=O)N3CCC4(CC3)CCN(c3ccc(C5CCC(=O)NC5=O)cn3)CC4)cc2)C1 (stereo partly drawn) [Compound 2-52] | < 1 |  | 0.4 | < 1 | 
18 | CN1C[C@H](Nc2cnn(C)c(=O)c2Br)C[C@H](c2ccc(CN3CCC(Oc4ccc(C5CCC(=O)NC5=O)cc4)CC3)cc2)C1 (stereo partly drawn) [Compound 86] | < 1 | < 1 | 1.7 | 1 to 30 | 11
19 | CN1C[C@H](Nc2cnn(C)c(=O)c2Br)C[C@H](c2ccc(C(=O)N3CCC(CN4CCN(c5ccc6c(c5)C(=O)N(C5CCC(=O)NC5=O)C6=O)CC4)CC3)cc2)C1 (stereo partly drawn) [Compound 40] |  | < 1 | 7.8 |  | 
20 | CN1C[C@H](Nc2cnn(C)c(=O)c2Cl)C[C@H](c2ccc(C(=O)N3CCC4(CC3)CCN(c3ccc(C5CCC(=O)NC5=O)cc3)CC4)cc2)C1 (stereo partly drawn) [Compound 145, 3-[4-[3-[4-[(3R,5R)-5-[(5-chloro-1-methyl-6-oxo-pyridazin-4-yl)amino]-1-methyl-3-piperidyl]benzoyl]-3,9-diazaspiro[5.5]undecan-9-yl]phenyl]piperidine-2,6-dione] | < 1 | < 1 | 1 | < 1 | 
21 | CN1C[C@H](Nc2cnn(C)c(=O)c2Br)C[C@H](c2ccc(C(=O)N3CCC4(CC3)CCN(c3ccc(C5CCC(=O)NC5=O)cc3)CC4)cc2)C1 (stereo partly drawn) [Compound 90, 3-[4-[3-[4-[(3R,5R)-5-[(5-bromo-1-methyl-6-oxo-pyridazin-4-yl)amino]-1-methyl-3-piperidyl]benzoyl]-3,9-diazaspiro[5.5]undecan-9-yl]phenyl]piperidine-2,6-dione] | < 1 | < 1 | 0.9 | < 1 | 1.5
